# Source: US20240409585A1, “MACROCYCLIC IMMUNOMODULATORS” (priority 2021, published 2024)
# Bridge positions count the residues as written; N and C are the ends. Square brackets hold non-standard residues; d marks the D form. Peptide text beside a SMILES is read from it. * marks the point of attachment. Bip = N[C@@H](Cc1ccc(-c2ccccc2)cc1)C(=O)O; Phe(3-Me) = Cc1cccc(C[C@H](N)C(=O)O)c1; 4Pal = N[C@@H](Cc1ccncc1)C(=O)O; Cha = N[C@@H](CC1CCCCC1)C(=O)O; Carboxymethyl = O=C(O)C*; NMeA = CN[C@@H](C)C(=O)O; Orn = NCCC[C@H](N)C(=O)O; Dab = NCC[C@H](N)C(=O)O
# Target: T1, PE-labeled human PD-L1-Ig binding to Jurkat cell line over-expressing human PD-1 (Jurkat-PD-1) (Homo sapiens, UniProt Q15116)
# T1 construct: expressed in transfected cells; host or cells: Jurkat
# Experiment: Jurkat-PD-1 Cell Binding High-Content Screening Assay (CBA): Method 1
# Conditions: Jurkat-hPD-1 cells, PE-labeled PD-L1-Ig 20 nM final; read-out: Jurkat HPDL1 PD1 IC50 (uM) (Method 1)
# T1 sequence (Q15116 25-288): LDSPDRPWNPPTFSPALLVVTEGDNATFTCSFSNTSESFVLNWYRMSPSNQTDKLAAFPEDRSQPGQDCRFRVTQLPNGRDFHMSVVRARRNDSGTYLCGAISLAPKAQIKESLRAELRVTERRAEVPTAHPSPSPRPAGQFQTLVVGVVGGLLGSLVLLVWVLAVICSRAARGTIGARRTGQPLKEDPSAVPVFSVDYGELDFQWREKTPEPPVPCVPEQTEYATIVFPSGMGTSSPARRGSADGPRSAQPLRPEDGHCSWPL
row,IC50 [µM],SMILES
1,0.03,Cc1cccc(C[C@@H]2NC(=O)[C@H](CC(=O)O)NC(=O)[C@H](Cc3ccc(OCC(=O)O)cc3)NC(=O)[C@H](Cc3ccc(OCC(=O)O)cc3)NC(=O)CSC[C@@H](C(N)=O)NC(=O)[C@H](CCCN)NC(=O)[C@H](C(C)C)NC(=O)[C@H](CC3CCCCC3)NC(=O)[C@H](CCN)NC(=O)[C@@H](CC(C)C)NC(=O)[C@H](C)N(C)C(=O)[C@H](Cc3ccc(OCC(=O)O)cc3)NC(=O)[C@H](Cc3ccc(-c4ccccc4)cc3)NC(=O)[C@H](Cc3ccc(OCC(=O)O)cc3)NC2=O)c1 [Compound 1652] ({CH2CO}-Y(Carboxymethyl)Y(Carboxymethyl)D[Phe(3-Me)]Y(Carboxymethyl)[Bip]Y(Carboxymethyl)[NMeA][dL][Dab][Cha]V[Orn]C-NH2; thioether N-14)
2,0.03,Cc1cccc(C[C@@H]2NC(=O)[C@H](CC(=O)O)NC(=O)[C@H](Cc3ccc(OCC(=O)O)cc3)NC(=O)[C@H](Cc3ccc(OCC(=O)O)cc3)NC(=O)CSC[C@@H](C(N)=O)NC(=O)[C@H](CC(N)=O)NC(=O)[C@H](C(C)C)NC(=O)[C@H](CC3CCCCC3)NC(=O)[C@H](CCN)NC(=O)[C@@H](CC(C)C)NC(=O)[C@H](C)N(C)C(=O)[C@H](Cc3ccc(OCC(=O)O)cc3)NC(=O)[C@H](Cc3ccc(-c4ccccc4)cc3)NC(=O)[C@H](Cc3ccc(OCC(=O)O)cc3)NC2=O)c1 [Compound 1653] ({CH2CO}-Y(Carboxymethyl)Y(Carboxymethyl)D[Phe(3-Me)]Y(Carboxymethyl)[Bip]Y(Carboxymethyl)[NMeA][dL][Dab][Cha]VNC-NH2; thioether N-14)
3,0.08,Cc1cccc(C[C@@H]2NC(=O)[C@H](CC(=O)O)NC(=O)[C@H](Cc3ccc(OCC(=O)O)cc3)NC(=O)[C@H](Cc3ccc(OCC(=O)O)cc3)NC(=O)CSC[C@@H](C(N)=O)NC(=O)[C@H](CC(=O)O)NC(=O)[C@H](C(C)C)NC(=O)[C@H](CC3CCCCC3)NC(=O)[C@H](CCN)NC(=O)[C@@H](CC(C)C)NC(=O)[C@H](C)N(C)C(=O)[C@H](Cc3ccc(OCC(=O)O)cc3)NC(=O)[C@H](Cc3ccc(-c4ccccc4)cc3)NC(=O)[C@H](Cc3ccc(OCC(=O)O)cc3)NC2=O)c1 [Compound 1654] ({CH2CO}-Y(Carboxymethyl)Y(Carboxymethyl)D[Phe(3-Me)]Y(Carboxymethyl)[Bip]Y(Carboxymethyl)[NMeA][dL][Dab][Cha]VDC-NH2; thioether N-14)
4,0.03,Cc1cccc(C[C@@H]2NC(=O)[C@H](CC(=O)O)NC(=O)[C@H](Cc3ccc(OCC(=O)O)cc3)NC(=O)[C@H](Cc3ccc(OCC(=O)O)cc3)NC(=O)CSC[C@@H](C(N)=O)NC(=O)[C@H](CCC(N)=O)NC(=O)[C@H](C(C)C)NC(=O)[C@H](CC3CCCCC3)NC(=O)[C@H](CCN)NC(=O)[C@@H](CC(C)C)NC(=O)[C@H](C)N(C)C(=O)[C@H](Cc3ccc(OCC(=O)O)cc3)NC(=O)[C@H](Cc3ccc(-c4ccccc4)cc3)NC(=O)[C@H](Cc3ccc(OCC(=O)O)cc3)NC2=O)c1 [Compound 1655] ({CH2CO}-Y(Carboxymethyl)Y(Carboxymethyl)D[Phe(3-Me)]Y(Carboxymethyl)[Bip]Y(Carboxymethyl)[NMeA][dL][Dab][Cha]VQC-NH2; thioether N-14)
5,0.03,Cc1cccc(C[C@@H]2NC(=O)[C@H](CC(=O)O)NC(=O)[C@H](Cc3ccc(OCC(=O)O)cc3)NC(=O)[C@H](Cc3ccc(OCC(=O)O)cc3)NC(=O)CSC[C@@H](C(N)=O)NC(=O)[C@H]([C@@H](C)O)NC(=O)[C@H](C(C)C)NC(=O)[C@H](CC3CCCCC3)NC(=O)[C@H](CCN)NC(=O)[C@@H](CC(C)C)NC(=O)[C@H](C)N(C)C(=O)[C@H](Cc3ccc(OCC(=O)O)cc3)NC(=O)[C@H](Cc3ccc(-c4ccccc4)cc3)NC(=O)[C@H](Cc3ccc(OCC(=O)O)cc3)NC2=O)c1 [Compound 1656] ({CH2CO}-Y(Carboxymethyl)Y(Carboxymethyl)D[Phe(3-Me)]Y(Carboxymethyl)[Bip]Y(Carboxymethyl)[NMeA][dL][Dab][Cha]VTC-NH2; thioether N-14)
6,0.05,Cc1cccc(C[C@@H]2NC(=O)[C@H](CC(=O)O)NC(=O)[C@H](Cc3ccc(OCC(=O)O)cc3)NC(=O)[C@H](Cc3ccc(OCC(=O)O)cc3)NC(=O)CSC[C@@H](C(N)=O)NC(=O)[C@H](CCC(=O)O)NC(=O)[C@H](C(C)C)NC(=O)[C@H](CC3CCCCC3)NC(=O)[C@H](CCN)NC(=O)[C@@H](CC(C)C)NC(=O)[C@H](C)N(C)C(=O)[C@H](Cc3ccc(OCC(=O)O)cc3)NC(=O)[C@H](Cc3ccc(-c4ccccc4)cc3)NC(=O)[C@H](Cc3ccc(OCC(=O)O)cc3)NC2=O)c1 [Compound 1657] ({CH2CO}-Y(Carboxymethyl)Y(Carboxymethyl)D[Phe(3-Me)]Y(Carboxymethyl)[Bip]Y(Carboxymethyl)[NMeA][dL][Dab][Cha]VEC-NH2; thioether N-14)
7,0.03,Cc1cccc(C[C@@H]2NC(=O)[C@H](CC(=O)O)NC(=O)[C@H](Cc3ccc(OCC(=O)O)cc3)NC(=O)[C@H](Cc3ccncc3)NC(=O)CSC[C@@H](C(N)=O)NC(=O)[C@H](CC(=O)O)NC(=O)[C@H](C(C)C)NC(=O)[C@H](CC3CCCCC3)NC(=O)[C@H](CCN)NC(=O)[C@@H](CC(C)C)NC(=O)[C@H](C)N(C)C(=O)[C@H](Cc3ccc(OCC(=O)O)cc3)NC(=O)[C@H](Cc3ccc(-c4ccccc4)cc3)NC(=O)[C@H](Cc3ccc(OCC(=O)O)cc3)NC2=O)c1 [Compound 1658] ({CH2CO}-[4Pal]Y(Carboxymethyl)D[Phe(3-Me)]Y(Carboxymethyl)[Bip]Y(Carboxymethyl)[NMeA][dL][Dab][Cha]VDC-NH2; thioether N-14)
8,0.03,Cc1cccc(C[C@@H]2NC(=O)[C@H](CC(=O)O)NC(=O)[C@H](Cc3ccc(OCC(=O)O)cc3)NC(=O)[C@H](Cc3ccncc3)NC(=O)CSC[C@@H](C(N)=O)NC(=O)[C@H](CCC(N)=O)NC(=O)[C@H](C(C)C)NC(=O)[C@H](CC3CCCCC3)NC(=O)[C@H](CCN)NC(=O)[C@@H](CC(C)C)NC(=O)[C@H](C)N(C)C(=O)[C@H](Cc3ccc(OCC(=O)O)cc3)NC(=O)[C@H](Cc3ccc(-c4ccccc4)cc3)NC(=O)[C@H](Cc3ccc(OCC(=O)O)cc3)NC2=O)c1 [Compound 1659] ({CH2CO}-[4Pal]Y(Carboxymethyl)D[Phe(3-Me)]Y(Carboxymethyl)[Bip]Y(Carboxymethyl)[NMeA][dL][Dab][Cha]VQC-NH2; thioether N-14)
9,0.02,Cc1cccc(C[C@@H]2NC(=O)[C@H](CC(=O)O)NC(=O)[C@H](Cc3ccc(OCC(=O)O)cc3)NC(=O)[C@H](Cc3ccncc3)NC(=O)CSC[C@@H](C(N)=O)NC(=O)[C@H]([C@@H](C)O)NC(=O)[C@H](C(C)C)NC(=O)[C@H](CC3CCCCC3)NC(=O)[C@H](CCN)NC(=O)[C@@H](CC(C)C)NC(=O)[C@H](C)N(C)C(=O)[C@H](Cc3ccc(OCC(=O)O)cc3)NC(=O)[C@H](Cc3ccc(-c4ccccc4)cc3)NC(=O)[C@H](Cc3ccc(OCC(=O)O)cc3)NC2=O)c1 [Compound 1660] ({CH2CO}-[4Pal]Y(Carboxymethyl)D[Phe(3-Me)]Y(Carboxymethyl)[Bip]Y(Carboxymethyl)[NMeA][dL][Dab][Cha]VTC-NH2; thioether N-14)
10,0.05,Cc1cccc(C[C@@H]2NC(=O)[C@H](CC(=O)O)NC(=O)[C@H](Cc3ccc(OCC(=O)O)cc3)NC(=O)[C@H](Cc3ccncc3)NC(=O)CSC[C@@H](C(N)=O)NC(=O)[C@H](CCC(=O)O)NC(=O)[C@H](C(C)C)NC(=O)[C@H](CC3CCCCC3)NC(=O)[C@H](CCN)NC(=O)[C@@H](CC(C)C)NC(=O)[C@H](C)N(C)C(=O)[C@H](Cc3ccc(OCC(=O)O)cc3)NC(=O)[C@H](Cc3ccc(-c4ccccc4)cc3)NC(=O)[C@H](Cc3ccc(OCC(=O)O)cc3)NC2=O)c1 [Compound 1661] ({CH2CO}-[4Pal]Y(Carboxymethyl)D[Phe(3-Me)]Y(Carboxymethyl)[Bip]Y(Carboxymethyl)[NMeA][dL][Dab][Cha]VEC-NH2; thioether N-14)
11,0.01,Cc1cccc(C[C@@H]2NC(=O)[C@H](CC(=O)O)NC(=O)[C@H](Cc3ccc(OCC(=O)O)cc3)NC(=O)[C@H](Cc3ccncc3)NC(=O)CSC[C@@H](C(N)=O)NC(=O)[C@H](CCCN)NC(=O)[C@H](C(C)C)NC(=O)[C@H](CC3CCCCC3)NC(=O)[C@H](CCN)NC(=O)[C@@H](CC(C)C)NC(=O)[C@H](C)N(C)C(=O)[C@H](Cc3ccc(OCC(=O)O)cc3)NC(=O)[C@H](Cc3ccc(-c4ccccc4)cc3)NC(=O)[C@H](Cc3ccc(OCC(=O)O)cc3)NC2=O)c1 [Compound 1662] ({CH2CO}-[4Pal]Y(Carboxymethyl)D[Phe(3-Me)]Y(Carboxymethyl)[Bip]Y(Carboxymethyl)[NMeA][dL][Dab][Cha]V[Orn]C-NH2; thioether N-14)
12,0.01,Cc1cccc(C[C@@H]2NC(=O)[C@H](CC(=O)O)NC(=O)[C@H](Cc3ccc(OCC(=O)O)cc3)NC(=O)[C@H](Cc3ccncc3)NC(=O)CSC[C@@H](C(N)=O)NC(=O)[C@H](CC(N)=O)NC(=O)[C@H](C(C)C)NC(=O)[C@H](CC3CCCCC3)NC(=O)[C@H](CCN)NC(=O)[C@@H](CC(C)C)NC(=O)[C@H](C)N(C)C(=O)[C@H](Cc3ccc(OCC(=O)O)cc3)NC(=O)[C@H](Cc3ccc(-c4ccccc4)cc3)NC(=O)[C@H](Cc3ccc(OCC(=O)O)cc3)NC2=O)c1 [Compound 1663] ({CH2CO}-[4Pal]Y(Carboxymethyl)D[Phe(3-Me)]Y(Carboxymethyl)[Bip]Y(Carboxymethyl)[NMeA][dL][Dab][Cha]VNC-NH2; thioether N-14)
13,0.05,Cc1cccc(C[C@@H]2NC(=O)[C@H](CC(=O)O)NC(=O)[C@H](Cc3ccc(OCC(=O)O)cc3)NC(=O)[C@H](CC(N)=O)NC(=O)CSC[C@@H](C(N)=O)NC(=O)[C@H](CC(N)=O)NC(=O)[C@H](C(C)C)NC(=O)[C@H](CC3CCCCC3)NC(=O)[C@H](CCN)NC(=O)[C@@H](CC(C)C)NC(=O)[C@H](C)N(C)C(=O)[C@H](Cc3ccc(OCC(=O)O)cc3)NC(=O)[C@H](Cc3ccc(-c4ccccc4)cc3)NC(=O)[C@H](Cc3ccc(OCC(=O)O)cc3)NC2=O)c1 [Compound 1664] ({CH2CO}-NY(Carboxymethyl)D[Phe(3-Me)]Y(Carboxymethyl)[Bip]Y(Carboxymethyl)[NMeA][dL][Dab][Cha]VNC-NH2; thioether N-14)
